Literature values in US20060177524A1, “Ocular irrigating solution” (University of Bristol, priority 1998, published 2006).

Key:
[1] = at 25° C.
[2] = system: endothelial Na^+K^+ ATPase; conditions: Geroski et al 1982-83, human and rabbit corneas

Q: Which pKa [1] does the source give for `O=S(=O)(O)CCCN1CCN(CCO)CC1` [EPPS, N-[2-hydroxyethyl]-piperazine-N′-[3-propanesulfonic acid]] here?
A: The pKa was 8.0.

Q: For `O=S(=O)(O)CCN1CCN(CCO)CC1` [HEPES, N-2-[hydroxyethyl]piperazine-N′-[2-ethanesulfonic acid]], which “Toxicity to endothelial Na^+K^+ ATPase” value [2] is on record?
A: The value was “toxic”.
